# Patent US6528275B1, “Substrates and inhibitors of proteolytic enzymes” (Peptide Therapeutics Limited, priority 1996, dated 2003)
# Non-standard residues stand in square brackets, D forms with d. Residues, ends and D or L forms follow the SMILES beside them. *: point of attachment. Tyr(3-NO2) = N[C@@H](Cc1ccc(O)c([N+](=O)[O-])c1)C(=O)O; Benzoyl(2-COOH) = O=C(O)c1ccccc1C(=O)*; 2Nal = N[C@@H](Cc1ccc2ccccc2c1)C(=O)O; Hyp = O=C(O)[C@@H]1C[C@@H](O)CN1; Cha = N[C@@H](CC1CCCCC1)C(=O)O; hLeu = CC(C)CC[C@H](N)C(=O)O; dNle = CCCC[C@@H](N)C(=O)O; Ac6c = NC1(C(=O)O)CCCCC1; Nle = CCCC[C@H](N)C(=O)O; Ac5c = NC1(C(=O)O)CCCC1; 2Abz = Nc1ccccc1C(=O)O; Piv = CC(C)(C)C(=O)*; Bz = O=C(c1ccccc1)*; Ahx = NCCCCCC(=O)O
# Molecular target: T1, Der pI (Dermatophagoides pteronyssinus, UniProt P08176)
# T1 construct: tissue SmithKline-Beecham, U.K (crude mite extract); host or cells: crude house dust mite extract
# T1 sequence (P08176 99-320): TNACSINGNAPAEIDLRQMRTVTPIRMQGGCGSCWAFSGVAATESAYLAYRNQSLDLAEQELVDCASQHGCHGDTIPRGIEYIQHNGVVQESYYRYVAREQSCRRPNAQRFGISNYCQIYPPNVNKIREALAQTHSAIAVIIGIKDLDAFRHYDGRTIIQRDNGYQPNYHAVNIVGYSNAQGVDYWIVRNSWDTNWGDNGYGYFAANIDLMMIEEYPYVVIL
# Assay: Der pI substrate assay with FRET peptides (fluorescence, Km, kcat/Km)
# Format: biochemical, house dust mite
# Parameters: key: NS indicates that the peptide was not hydrolysed by Der pI.; NM indicated that the peptide was a substrate for Der pI, but the Km was not measured.; NM^a indicates that the peptide was a substrate for Der pI, and its cleavage was followed by HPLC-MS showing hydrolysis to occur between-Nle-Ser-
# Settings: purified Der pI; peptides SEQ ID Nos. 1-76
# Description: Using the general techniques described above, the following compounds were prepared and assayed as potential substrates against Der pI purified as described above.
# Each mixture of 20 compounds in the libraries of the apparatus described herein was screened at a concentration of 1.0 μM per compound in an assay against the cysteinyl protease Der pI.
# Plate assays were carried out in 96 well plate format, using 0.1 ug of Der pI per 100 μL assay volume in each well and using 20 μM of the substrate. All assays were performed in Assay Buffer (AB; 50 mM potassium phosphate, pH 8.25 containing 1 mM ethylenediaminetetraacetic acid (EDTA) and 1 mM dithiothreitol (DTT). The Der pI enzyme is pre-activated by addition of DTT and this in incubated at room temperature for 5 min. prior to initiation of the assay. As an example for the screening methodology, each well contains a 5 μL of a 20 μM solution of the test compound in DMSO, 10 μL of a 200 μM aqueous solution of the substrate, 2, and 85 μL of Der pI in AB is added to initiate the reaction. Enzyme activity is monitored by fluorescence using 320 nm for excitation and 420 nm for the emission wavelengths using a Labsystems Fluroskan Ascent machine. Kinetic measurements were carried out using a Hitachi F-4500 Fluorescence Spectrophotometer.
row,Compound,substrate or not substrate for Der pI (symbols in Measured Km)
1,CCCC[C@H](NC(=O)[C@H](C)NC(=O)[C@@H](NC(=O)c1ccccc1N)C(C)C)C(=O)N[C@@H](CO)C(=O)N[C@@H](CCCCN)C(=O)N[C@@H](CC(=O)O)C(N)=O [Abz-Val-Ala-Nle-Ser-Lys-Asp-NH2] (H-[2Abz]VA[Nle]SKD-NH2),NM
2,CCCC[C@H](NC(=O)[C@H](C)NC(=O)[C@@H](NC(=O)c1ccccc1N)C(C)C)C(=O)N[C@@H](CO)C(=O)NCCCCCC(=O)N[C@@H](CC(=O)O)C(N)=O [Abz-Val-Ala-Nle-Ser-eAHA-Asp-NH2] (H-[2Abz]VA[Nle]S[Ahx]D-NH2),NM
3,CCCC[C@H](NC(=O)[C@H](C)NC(=O)[C@@H](NC(=O)c1ccccc1C(=O)O)C(C)C)C(=O)N[C@@H](CO)C(=O)N[C@@H](Cc1ccc(O)c([N+](=O)[O-])c1)C(N)=O [Bz(2-carboxy)-Val-Ala-Nle-Ser-Tyr(NO2)-NH2] ({Benzoyl(2-COOH)}-VA[Nle]S[Tyr(3-NO2)]-NH2),NM^a
4,CCCC[C@H](NC(=O)[C@H](C)NC(=O)[C@@H](NC(C)=O)C(C)C)C(=O)N[C@@H](CO)C(=O)N[C@@H](Cc1ccc(O)c([N+](=O)[O-])c1)C(=O)N[C@@H](CC(=O)O)C(N)=O [Ac-Val-Ala-Nle-Ser-Tyr(NO2)-Asp-NH2] (Ac-VA[Nle]S[Tyr(3-NO2)]D-NH2),NS
5,CCCC[C@H](NC(=O)[C@H](C)NC(=O)[C@@H](NC(=O)c1ccccc1N)C(C)C)C(=O)N[C@@H](CO)C(=O)N[C@@H](Cc1ccc(O)cc1)C(=O)N[C@@H](CC(=O)O)C(N)=O [Abz-Val-Ala-Nle-Ser-Tyr-Asp-NH2] (H-[2Abz]VA[Nle]SYD-NH2),NM
6,CC(C)[C@H](NC(=O)c1ccccc1N)C(=O)N[C@@H](C)C(=O)NC1(C(=O)N[C@@H](CO)C(=O)N[C@@H](Cc2ccc(O)c([N+](=O)[O-])c2)C(=O)N[C@@H](CC(=O)O)C(N)=O)CCCCC1 [Abz-Val-Ala-ACH-Ser-Tyr(NO2)-Asp-NH2] (H-[2Abz]VA[Ac6c]S[Tyr(3-NO2)]D-NH2),NS
7,CCCC[C@H](NC(=O)[C@H](C)NC(=O)[C@@H](NC(=O)[C@H](CC(C)C)NC(=O)c1ccccc1N)C(C)C)C(=O)N[C@@H](CO)C(=O)N[C@@H](Cc1ccc(O)c([N+](=O)[O-])c1)C(=O)N[C@@H](CC(=O)O)C(N)=O [Abz-Leu-Val-Ala-Nle-Ser-Tyr(NO2)-Asp-NH2] (H-[2Abz]LVA[Nle]S[Tyr(3-NO2)]D-NH2),NM
8,CCCC[C@H](NC(=O)[C@H](C)NC(=O)[C@@H](NC(=O)[C@H](Cc1ccccc1)NC(=O)c1ccccc1N)C(C)C)C(=O)N[C@@H](CO)C(=O)N[C@@H](Cc1ccc(O)c([N+](=O)[O-])c1)C(=O)N[C@@H](CC(=O)O)C(N)=O [Abz-Phe-Val-Ala-Nle-Ser-Tyr(NO2)-Asp-NH2] (H-[2Abz]FVA[Nle]S[Tyr(3-NO2)]D-NH2),NM
9,CCCC[C@H](NC(=O)[C@H](C)NC(=O)[C@@H](NC(=O)c1ccccc1N)C(C)C)C(=O)N[C@@H](CO)C(N)=O [Abz-Val-Ala-Nle-Ser-NH2] (H-[2Abz]VA[Nle]S-NH2),NM
10,CC(C)CC[C@H](NC(=O)[C@@H](CCCCN)NC(=O)[C@@H](NC(=O)c1ccccc1N)C(C)C)C(=O)N[C@@H](CO)C(=O)N[C@@H](Cc1ccc(O)c([N+](=O)[O-])c1)C(=O)N[C@@H](CC(=O)O)C(N)=O [Abz-Val-DLys-hLeu-Ser-Tyr(NO2)-Asp-NH2] (H-[2Abz]V[dK][hLeu]S[Tyr(3-NO2)]D-NH2),NS
11,CCCC[C@H](NC(=O)[C@H](C)NC(=O)[C@@H](NC(C)=O)C(C)C)C(=O)N[C@@H](CO)C(=O)N[C@@H](Cc1ccc(O)c([N+](=O)[O-])c1)C(N)=O [Ac-Val-Ala-Nle-Ser-Tyr(NO2)-NH2] (Ac-VA[Nle]S[Tyr(3-NO2)]-NH2),NS
12,CCCC[C@H](NC(=O)[C@H](C)NC(=O)c1ccccc1N)C(=O)N[C@@H](CO)C(=O)N[C@@H](Cc1ccc(O)c([N+](=O)[O-])c1)C(=O)N[C@@H](CC(=O)O)C(N)=O [Abz-Ala-Nle-Ser-Tyr(NO2)-Asp-NH2] (H-[2Abz]A[Nle]S[Tyr(3-NO2)]D-NH2),NM
13,CC(C)CC[C@H](NC(=O)[C@@H](C)NC(=O)[C@@H](NC(=O)c1ccccc1N)C(C)C)C(=O)N[C@@H](CO)C(=O)N[C@@H](Cc1ccc(O)c([N+](=O)[O-])c1)C(=O)N[C@@H](CC(=O)O)C(N)=O [Abz-Val-DAla-hLeu-Ser-Tyr(NO2)-Asp-NH2] (H-[2Abz]V[dA][hLeu]S[Tyr(3-NO2)]D-NH2),NS
14,CC(C)CC[C@H](NC(=O)[C@H](Cc1ccc2ccccc2c1)NC(=O)[C@@H](NC(=O)c1ccccc1N)C(C)C)C(=O)N[C@@H](CO)C(=O)N[C@@H](Cc1ccc(O)c([N+](=O)[O-])c1)C(=O)N[C@@H](CC(=O)O)C(N)=O [Abz-Val-2Nal-hLeu-Ser-Tyr(NO2)-Asp-NH2] (H-[2Abz]V[2Nal][hLeu]S[Tyr(3-NO2)]D-NH2),NS
15,n-Bu-Val-Ala-Nle-Ser-Tyr(NO2)-NH2,NM^a
16,CCCC[C@@H](NC(=O)[C@H](C)NC(=O)[C@@H](NC(=O)c1ccccc1N)C(C)C)C(=O)N[C@@H](CO)C(=O)N[C@@H](Cc1ccc(O)c([N+](=O)[O-])c1)C(=O)N[C@@H](CC(=O)O)C(N)=O [Abz-Val-Ala-DNle-Ser-Tyr(NO2)-Asp-NH2] (H-[2Abz]VA[dNle]S[Tyr(3-NO2)]D-NH2),NS
17,CC(C)CC[C@H](NC(=O)[C@H](CC1CCCCC1)NC(=O)[C@@H](NC(=O)c1ccccc1N)C(C)C)C(=O)N[C@@H](CO)C(=O)N[C@@H](Cc1ccc(O)c([N+](=O)[O-])c1)C(=O)N[C@@H](CC(=O)O)C(N)=O [Abz-Val-Cha-hLeu-Ser-Tyr(NO2)-Asp-NH2] (H-[2Abz]V[Cha][hLeu]S[Tyr(3-NO2)]D-NH2),NS
18,CCCC[C@H](NC(=O)[C@H](C)NC(=O)[C@@H](NC(=O)c1ccccc1)C(C)C)C(=O)N[C@@H](CO)C(=O)N[C@@H](Cc1ccc(O)c([N+](=O)[O-])c1)C(N)=O [Bz-Val-Ala-Nle-Ser-Tyr(NO2)-NH2] (Bz-VA[Nle]S[Tyr(3-NO2)]-NH2),NM^a
19,CCCC[C@H](NC(=O)[C@H](C)NC(=O)[C@@H](NC(=O)C(C)(C)C)C(C)C)C(=O)N[C@@H](CO)C(=O)N[C@@H](Cc1ccc(O)c([N+](=O)[O-])c1)C(N)=O [Piv-Val-Ala-Nle-Ser-Tyr(NO2)-NH2] (Piv-VA[Nle]S[Tyr(3-NO2)]-NH2),NM^a
20,CC(C)CC[C@H](NC(=O)C1(NC(=O)[C@@H](NC(=O)c2ccccc2N)C(C)C)CCCC1)C(=O)N[C@@H](CO)C(=O)N[C@@H](Cc1ccc(O)c([N+](=O)[O-])c1)C(=O)N[C@@H](CC(=O)O)C(N)=O [Abz-Val-ACP-hLeu-Ser-Tyr(NO2)-Asp-NH2] (H-[2Abz]V[Ac5c][hLeu]S[Tyr(3-NO2)]D-NH2),NS
21,CCCC[C@H](NC(=O)[C@H](C)NC(=O)[C@@H](NC(=O)[C@@H]1C[C@@H](O)CN1C(=O)c1ccccc1N)C(C)C)C(=O)N[C@@H](CO)C(=O)N[C@@H](Cc1ccc(O)c([N+](=O)[O-])c1)C(=O)N[C@@H](CC(=O)O)C(N)=O [Abz-Hyp-Val-Ala-Nle-Ser-Tyr(NO2)-Asp-NH2] (H-[2Abz][Hyp]VA[Nle]S[Tyr(3-NO2)]D-NH2),NS
22,CC(C)CC[C@H](NC(=O)[C@H](C)NC(=O)C1(NC(=O)c2ccccc2N)CCCCC1)C(=O)N[C@@H](CO)C(=O)N[C@@H](Cc1ccc(O)c([N+](=O)[O-])c1)C(=O)N[C@@H](CC(=O)O)C(N)=O [Abz-ACH-Ala-hLeu-Ser-Tyr(NO2)-Asp-NH2] (H-[2Abz][Ac6c]A[hLeu]S[Tyr(3-NO2)]D-NH2),NS
23,CC(C)CC[C@H](NC(=O)[C@H](C)NC(=O)[C@H](NC(=O)c1ccccc1N)C(C)C)C(=O)N[C@@H](CO)C(=O)N[C@@H](Cc1ccc(O)c([N+](=O)[O-])c1)C(=O)N[C@@H](CC(=O)O)C(N)=O [Abz-DVal-Ala-hLeu-Ser-Tyr(NO2)-Asp-NH2] (H-[2Abz][dV]A[hLeu]S[Tyr(3-NO2)]D-NH2),NS
24,CC(C)[C@H](NC(=O)c1ccccc1N)C(=O)N[C@@H](C)C(=O)NC1(C(=O)N[C@@H](CO)C(=O)N[C@@H](Cc2ccc(O)c([N+](=O)[O-])c2)C(=O)N[C@@H](CC(=O)O)C(N)=O)CCCC1 [Abz-Val-Ala-ACP-Ser-Tyr(NO2)-Asp-NH2] (H-[2Abz]VA[Ac5c]S[Tyr(3-NO2)]D-NH2),NS
